Assay: Active ingredient release of NVA to pig's skin
Assay type: in vitro ADME
Conditions: pig's skin, 2, 4, 6, 8 and 24 hours, FIG. 7
Method: For investigating the release characteristics, specimens on pig's skin are prepared and the release is determined quantitatively after 24 hours.
In order to investigate the release characteristics, samples on pig's skin are prepared and the release is determined quantitatively after 2, 4, 6, 8 and 24 hours. […] From this it is clear that the active ingredient is delivered in a controlled, sustained manner into the skin to develop its activity there.

SMILES: CCCCCCCCC(=O)NCc1ccc(O)c(OC)c1 [NVA, Nonivamide]
- quantity of NVA released in total to epidermis and dermis, course over time: uniform, linear increase
